From patent US12329457B2, “Hyperspectral imaging for early detection of Alzheimer's disease” (REGENTS OF THE UNIVERSITY OF MINNESOTA, priority 2011, dated 2025)

Columns and labels:
Aβ^1-42 aggregates = molecular target: T1, Aβ^1-42 aggregates (Homo sapiens, UniProt P05067); assay: HSI with Spectral Angle Mapper (SAM) mapping and counting of intracellular amyloid aggregates; type: cell-based; conditions: HSI imaging coupled with SAM
T1 construct: Aβ1-42, FITC-Aβ1-42 and FITC-scrambled-Aβ1-42 were purchased from American Peptide Company; purchased American Peptide Company (Sunnyvale, CA, USA); host or cells: synthetic peptide added to SH-SY5Y cell cultures
Protocol: Cell Culture and Cellular Uptake. The human neuroblastoma cell line, SH-SY-5Y, used in the present study was obtained from American Type Culture Collection (Manassas, VA). The cells were maintained in MEM:F12 (1:1) medium supplemented with 10% FBS, 100 units/mL penicillin and 100 units/mL streptomycin and 1% NEAA (non-essential amino acid). Cells were grown at 37° C. in a humidified atmosphere with 5% CO2/95% air. FITC-Aβ1-42, and FITC-scrambled-Aβ1-42, were added to SHSY5Y cultures for 24 h. […]
(§1) The images were captured at 40× magnification using ENVI software, which is followed by extraction of spectral curves as described in the next section. The camera captured spectral responses from 400-1000 nm with a maximum readout time of 12 frames per second. […]
Spectral Angle Mapping Classification Algorithm Among supervised classification methods, a SAM classification algorithm was selected due to its better performance than other classification algorithms for detection of β-amyloid aggregates in unknown samples. […] The spectral angle parameter value as α=0·1 or 0·2 was used for a SAM classifier where α is defined as the angle between testing spectrum vector a, and reference spectrum vector b and is calculated using the following equation: (Also, see FIG. 14, and Siddiqi et al., Cancer, 114(1), 13-21 (2008).

Aβ^1-42 aggregation = molecular target: T2, Aβ^1-42 aggregation (Homo sapiens, UniProt P05067); assay: HSI spectral signature inhibitor screening in Aβ1-42-treated SH-SY5Y cells; type: cell-based; conditions: cells co-incubated with inhibitor and Aβ^1-42; rank guanidine, then guanosine, then urea
T2 construct: Aβ1-42, FITC-Aβ1-42 and FITC-scrambled-Aβ1-42 were purchased from American Peptide Company; purchased American Peptide Company (Sunnyvale, CA, USA); host or cells: synthetic peptide added to SH-SY5Y cell cultures
Protocol: (§2) Cell Culture and Cellular Uptake. The human neuroblastoma cell line, SH-SY-5Y, used in the present study was obtained from American Type Culture Collection (Manassas, VA). The cells were maintained in MEM:F12 (1:1) medium supplemented with 10% FBS, 100 units/mL penicillin and 100 units/mL streptomycin and 1% NEAA (non-essential amino acid). Cells were grown at 37° C. in a humidified atmosphere with 5% CO2/95% air. FITC-Aβ1-42, and FITC-scrambled-Aβ1-42, were added to SHSY5Y cultures for 24 h. For time-dependence experiments, 250 nM FITC-Aβ1-42 was added to SHSY5Y cells, plated in 4-well Lab-Tek chamber slides (Nunc) and images as well as spectral scans (Cytoviva) were acquired at varying times (0-5 days) after addition of the labeled-Aβ1-42. For dose-dependence experiments, FITC-Aβ1-42 was added at varying concentrations (0-1000 nM) and imaged 24 h thereafter. In some experiments, SH-SY-5Y cells were incubated with FITC-Aβ1-42 for 48 h in the presence and absence of inhibitors or promoters of β-amyloid peptide.
CytoViva hyperspectral imaging System After each treatment, slides were examined utilizing a CytoViva microscope and hyperspectral imaging system (CytoViva-Hyperspectral Imaging System (HSI), Auburn, AL; see the Cytoviva Hyperspectral Imaging System Manual) mounted on an Olympus BX-41 optical microscope. This system employs a darkfield-based illuminator that focuses a highly collimated light at oblique angles on the sample to obtain images with improved contrast and signal-to-noise ratio. […]
as §1
(§3) Acquisition of Spectral Scans from Hyperspectral Image The CytoViva Hyperspectral image analysis software powered by ENVI contains features to aid in the quantification and identification of materials by spectral data analysis. […]

APP/PS1 mice [1] = assay: Retinal HSI spectra to follow treatment in APP/PS1 mice; type: in vivo, mouse
Protocol: (b) Isolation and analysis of retina tissue. Eyes were enucleated from wild type and Alzheimer's mice at the desired age. For whole-mount retinas, eyes were fixed in […] of freshly prepared 4% PFA-PBS at room temperature for 45 minutes. This was followed by washing with ice-cold PBS solution (2 mL) at least five times. The anterior eye portion, cornea, was dissected out under surgical microscope. The iris was then removed followed by the sclera, lens and hyaloid vessels. The isolated retinas were then washed with ice-cold PBS and divided into four quadrants by making four radial incisions. The whole-mounts were prepared by transferring the dissected retinas onto a microscope slide and coverslipped with hardset Vectashield mounting medium with the nuclear stain DAPI. The whole-mount retina slides were scanned with Cytoviva microscope and spectral signatures were collected from wavelengths in the 400-1000 nm range as described before.
(§4) Hyperspectral Imaging to follow treatment success in Alzheimer's mice Alzheimer's and wild type mice were treated with a candidate drug, ψ-GSH, three times a week for 12 weeks starting at the age of three to four months. (see More et al., (2012) Restoration of Glyoxalase Enzyme Activity Precludes Cognitive Dysfunction in a Mouse Model of Alzheimer's Disease. ACS Chem. Neurosci., DOI: 10.1021/cn3001679) The study was divided in four groups (10 mice/group). 1. […]

APP/PS1 mice [2] = assay: Immunohistochemistry of brain tissue for Aβ load and plaques; type: in vivo, mouse
Protocol: (a) Isolation and analysis of brain tissue. Brains were removed from wild type and Alzheimer's mice and post fixed in Zamboni's fixative (4% paraformaldehyde and 15% picric acid in 0.25 M sodium phosphate, pH 7.5) for 48 h before being cryopreserved in a 30% (wt/vol) sucrose/0.1 sodium phosphate-buffered saline solution. Frozen sections (10 μm) in OCT were cut on a sliding microtome, brought to room temperature and were coverslipped with hardset Vectashield mounting medium with the nuclear stain DAPI (catalogue #H-1500; Vector Laboratories, Burlingame, CA). The whole-mount brain slides were scanned with Cytoviva microscope and spectral signatures were collected from wavelengths in the 400-1000 nm range as described.
(c) Immunohistochemistry of mouse brain and retina samples. For immunofluorescence studies, brain section slides and retina sample slides were pre-incubated for 1 hour in 5% normal goat serum (NGS) in 1×PBST (1×PBS containing 0.3% Triton X-100) at room temperature. A primary antibody against β-amyloid peptide ((Cell signaling, Cat. #2454) was employed then at a dilution of 1:200 in 1% NGS in 1×PBST. After an overnight incubation at 4° C., the slides were rinsed thrice for 10 min with 1×PBST and then incubated for 2 h in goat anti-rabbit IgG conjugated to Cy3 diluted to 1:1000 in 1% NGS in 1× PBST. The sections were rinsed in PBST thrice for 10 min and in PBS for 5 min. Samples were then dehydrated in ethanol, cleared with methyl salicylate, mounted in DEPEX (Electron Microscopy Science, Poole, UK) and staining of β-amyloid aggregates and plaques was visualized with Cytoviva microscope.
as §4

APP/PS1 mice [3] = assay: Morris Water maze memory test in APP/PS1 mice; type: in vivo, mouse
SH-SY5Y cells = assay: HSI spectral signature of cells exposed to Aβ1-42; type: cell-based, human
Protocol: as §2, with “In some experiments, SH-SY-5Y cells were incubated with FITC-Aβ1-42 for 48 h in the presence and absence of inhibitors or promoters of β-amyloid peptide.” left out
as §1, §3

T2 sequence (P05067 672-713): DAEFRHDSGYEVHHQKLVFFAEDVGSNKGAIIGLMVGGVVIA
T1 sequence (P05067 672-713): as above

## [Zn+2] [Zn^2+]
Aβ^1-42 aggregates
  number of intracellular amyloid aggregates compared to cells treated with Aβ^1-42 alone: 280%

## N=C(N)N [guanidine, Guanidine]
Aβ^1-42 aggregation
  attenuation of amyloid-induced HSI spectral change: greatest attenuation in HSI spectral change
Aβ^1-42 aggregates
  number of intracellular amyloid aggregates compared to cells treated with Aβ^1-42 alone: 62%

## Nc1nc2c(ncn2[C@@H]2O[C@H](CO)[C@@H](O)[C@H]2O)c(=O)[nH]1 [guanosine]
Aβ^1-42 aggregation
  attenuation of amyloid-induced HSI spectral change: attenuation of amyloid-induced HSI spectral change

## NC(N)=O [urea]
Aβ^1-42 aggregation
  attenuation of amyloid-induced HSI spectral change: attenuation of amyloid-induced HSI spectral change

## N[C@@H](CNC(=O)N[C@@H](CS)C(=O)NCC(=O)O)C(=O)O [ψ-GSH]
APP/PS1 mice [1]; APP/PS1 mice treated orally
  retinal HSI spectra: did not exhibit any differences from those of transgenic mice
APP/PS1 mice [1]; APP/PS1 mice, ψ-GSH i.p. 12 weeks, after 2 months of treatment onward
  retinal HSI spectra: tended toward those from normal mice
APP/PS1 mice [2]; i.p., versus untreated APP/PS1 mice
  brain Aβ load: significantly lower Aβ load
APP/PS1 mice [2]; orally treated APP/PS1 mice
  Aβ plaques in brain relative to controls: modest decrease in Aβ plaques
APP/PS1 mice [2]; ψ-GSH treated group (i.p.)
  number and sizes of Aβ plaques in brain: drastically reduced
APP/PS1 mice [3]; APP/PS1 mice treated orally
  spatial memory development and escape latencies relative to the saline-treated group: did not reach statistical significance
APP/PS1 mice [3]; day 3, ψ-GSH treated mice (WT saline 17.29±2.13 s)
  escape latency: 17.91 ± 4.65 s
APP/PS1 mice [3]; day 4, ψ-GSH treated mice (WT saline 12.42±2.18 s)
  escape latency: 14.64 ± 2.61 s
APP/PS1 mice [3]; i.p.
  learned behavior during the first week of testing: significant learned behavior inculcation
APP/PS1 mice [3]; i.p., untreated APP-PS1 16.39±3.39%, non-transgenic vehicle 36.67±5.30%
  time in the target quadrant, probe trial: 38.43±3.73%
APP/PS1 mice [3]; orally treated APP/PS1 mice
  time in the target quadrant, probe trial: 21.76±5.36%

## Aβ^1-42: β-amyloid peptide purchased from American Peptide Company; FITC-labelled form used for cell uptake
SH-SY5Y cells; 250 nM peptide, HSI spectra over time
  time at which transmitted light reaches its nadir: 48 h
SH-SY5Y cells; SH-SY5Y cells, 0-1000 nM peptide
  HSI spectral change in the 400-1000 nm wavelength region: transmitted light shifts to lower values
